Here are results for 33 molecules from patent US20230219911A1, “BENZOTHIAZOLE DERIVATIVES AND USES THEREOF” (SHENYANG PHARMACEUTICAL UNIVERSITY, priority 2020, published 2023).

What is called inhibition is the relative decrease from the control value, in per cent.

Structures are written as SMILES.

For this assay, the target named is T1, sEH enzyme (human recombinant) (Homo sapiens, UniProt P34913).
T1 construct: purchased Cayman Chemical
T1 sequence (P34913 1-555): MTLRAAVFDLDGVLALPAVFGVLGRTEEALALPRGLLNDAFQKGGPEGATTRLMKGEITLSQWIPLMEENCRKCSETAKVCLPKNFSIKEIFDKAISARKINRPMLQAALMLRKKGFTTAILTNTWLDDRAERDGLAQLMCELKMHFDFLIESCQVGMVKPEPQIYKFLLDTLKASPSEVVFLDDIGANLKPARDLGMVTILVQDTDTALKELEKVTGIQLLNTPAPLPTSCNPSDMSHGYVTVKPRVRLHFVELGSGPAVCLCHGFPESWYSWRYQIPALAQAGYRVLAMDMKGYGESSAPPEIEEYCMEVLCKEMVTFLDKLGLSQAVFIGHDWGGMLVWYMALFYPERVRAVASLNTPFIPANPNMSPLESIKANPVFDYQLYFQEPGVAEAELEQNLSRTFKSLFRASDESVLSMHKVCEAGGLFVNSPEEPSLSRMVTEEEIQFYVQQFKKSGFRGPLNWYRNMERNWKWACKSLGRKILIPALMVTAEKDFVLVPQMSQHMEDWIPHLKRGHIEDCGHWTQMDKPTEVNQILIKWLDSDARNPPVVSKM
The experiment in a line: in vitro sEH enzyme activity by fluorescence analysis, single concentration inhibition. The class given is biochemical. As to conditions: compound 0.1 μM; human recombinant sEH; PHOME substrate; 37° C. 15 min; read-out: sEH % inhibition, @ 0.1 μM. On the procedure: The benzothiazole skeleton compounds (concentration: 0.1 μM) according to the above formula I of the present invention were tested for the in vitro sEH enzyme activity by fluorescence analysis.
12 μL of sEH enzyme (human recombinant, 0.5 mg/mL, Cayman Chemical) was diluted with 588 μL of buffer (25 mM bis-Tris, pH 7.0). The fluorescent substrate was PHOME (cyano-(6-methoxy-naphthalen-2-yl)-methyl (3-phenyl-oxiranyl)-acetate) in DMSO (10 μM, Cayman Chemical). The compound to be tested was dissolved in 100% DMSO at a concentration of 4 μM. 185 μL of buffer (25 mM bis-Tris, pH 7.0), 5 μL of compound solution, and 5 μL of diluted sEH enzyme were added to the wells of a 96-well plate, and finally 5 μL of substrate solution was added to initiate the reaction. After incubating at 37° C. for 15 min, the fluorescence signal was measured with a microplate reader (excitation wavelength 330 nm, emission wavelength 465 nm).
Inhibition (%)=(F0−F1)/(F0)×100.
With `O=C(NCc1ccccc1)Nc1nc2ncc(N(CCN3CCOCC3)C(=O)Nc3ccc(Br)c(F)c3)cc2s1` [Example 47, 1-[2-(3-benzylureido)thiazo[4,5-b]pyridin-6-yl]-1-[2-(4-morpholinyl)ethyl]-3-(4-bromo-3-fluorophenyl)urea], the inhibition at 0.1 µM turned out to be 32.5%. For `NC(=O)Nc1ccc2nc(N)sc2c1` [Example 2, 1-(2-aminobenzo[d]thiazol-6-yl)urea] the value was 11.7%; for `CC(=O)Nc1ccc(NC(=O)N(CCN2CCOCC2)c2ccc3nc(N)sc3c2)cc1` [Example 10, 1-(2-aminobenzo[d]thiazol-6-yl)-1-[2-(4-morpholinyl)ethyl]-3-(4-acetamidophenyl)urea], 2.16%; for `CC(C)(C)OC(=O)Nc1nc2ccc(N(CCN3CCOCC3)C(=O)Cc3ccc(Cl)cc3)cc2s1` [Example 31, tert-butyl (6-{2-(4-chlorophenyl)-N-[2-(4-morpholinyl)ethyl]acetamido}benzo[d]thiazol-2-yl)carbamate], 70.9%. The figure for `Nc1nc2ccc(N(CCN3CCCC3)C(=O)Nc3ccc(Cl)cc3)cc2s1` [Example 24, 1-(2-aminobenzo[d]thiazol-6-yl)-1-[2-(pyrrolidin-1-yl)ethyl]-3-(4-chlorophenyl)urea] is 28.4%.

Regarding `Cc1ccc(NC(=O)N(CCN2CCOCC2)c2ccc3nc(NC(=O)Cc4ccccc4)oc3c2)cc1` [Example 37, 1-(2-phenylacetamidobenzo[d]oxazol-6-yl)-1-[2-(4-morpholinyl)ethyl]-3-(4-methylphenyl)urea], the inhibition at 0.1 µM is 66.8%. For the molecule `Nc1nc2ccc(N(CCN3CCOCC3)C(=O)Nc3ccccn3)cc2s1` [Example 14, 1-(2-aminobenzo[d]thiazol-6-yl)-1-[2-(4-morpholinyl)ethyl]-3-(pyridin-2-yl)urea], the inhibition at 0.1 µM is 16.2%. For `CCNc1nc2ccc(N(CCN3CCOCC3)C(=O)Nc3ccc(F)cc3)nc2s1` [Example 39, 1-[2-(ethylamino)thiazo[5,4-b]pyridin-5-yl]-1-[2-(4-morpholinyl)ethyl]-3-(4-fluorophenyl)urea] the value was 41.5%; for `CC(C)Oc1ccc(NC(=O)N(CCN2CCOCC2)c2ccc3nc(N)sc3c2)cc1` [Example 19, 1-(2-aminobenzo[d]thiazol-6-yl)-1-[2-(4-morpholinyl)ethyl]-3-(4-isopropoxyphenyl)urea], 76.6%. On to `Nc1nc2ccc(N(CCN3CCOCC3)C(=O)Nc3cccc4ccccc34)cc2s1` [Example 15, 1-(2-aminobenzo[d]thiazol-6-yl)-1-[2-(4-morpholinyl)ethyl]-3-(naphthalen-1-yl)urea], for which the inhibition at 0.1 µM was 39%.

As to `CCOC(=O)CNc1nc2cnc(N(CCN3CCOCC3)C(=O)Nc3ccc(OC(F)(F)F)cc3)cc2s1` [Example 43], the inhibition at 0.1 µM came out at 78.2%. The figure for `O=C(Cc1ccccc1)Nc1nc2ccc(N(CCN3CCOCC3)C(=O)Nc3ccc(C(F)(F)F)cc3)cc2s1` [Example 34, 1-(2-phenylacetamidobenzo[d]thiazol-6-yl)-1-[2-(4-morpholinyl)ethyl]-3-(4-trifluoromethylphenyl)urea] is 32.5%; for `O=C(CCc1ccccc1)Nc1nc2ccc(N(CCN3CCOCC3)C(=O)Nc3ccc(Cl)cc3)cc2s1` [Example 33] it is 15.8%. The figure for `CCN(CC)CCN(C(=O)Nc1ccc(Cl)cc1)c1ccc2nc(N)sc2c1` [Example 21, 1-(2-aminobenzo[d]thiazol-6-yl)-1-[2-(N,N-diethylamino)ethyl]-3-(4-chlorophenyl)urea] is 86.2%; for `Cc1ccc(NC(=O)N(CCN2CCOCC2)c2ccc3nc(N)oc3c2)cc1` [Example 35, 1-(2-aminobenzo[d]oxazol-6-yl)-1-[2-(4-morpholinyl)ethyl]-3-(4-methylphenyl)urea] it is 10.3%; for `CC(=O)Nc1nc2cnc(N(CCN3CCOCC3)C(=O)Nc3cccnc3)nc2s1` [Example 45, 1-(2-acetamidothiazo[5,4-d]pyrimidin-5-yl)-1-[2-(4-morpholinyl)ethyl]-3-(pyridin-3-yl)urea] it is 45.2%. For `CC(=O)Nc1nc2ccc(N(CCN3CCOCC3)C(=O)Nc3ccc(C)cc3)cc2o1` [Example 36, 1-(2-acetamidobenzo[d]oxazol-6-yl)-1-[2-(4-morpholinyl)ethyl]-3-(4-methylphenyl)urea] the value was 45.6%; for `O=C(Nc1nc2ccc(N(CCN3CCOCC3)C(=O)Nc3ccc(Cl)cc3)cc2s1)c1ccccc1` [Example 32, 1-(2-phenylformamidobenzo[d]thiazol-6-yl)-1-[2-(4-morpholinyl)ethyl]-3-(4-chlorophenyl)urea], 77.6%; for `Nc1nc2ccc(N(CCN3CCOCC3)C(=O)Nc3ccc([N+](=O)[O-])cc3)cc2s1` [Example 8, 1-(2-aminobenzo[d]thiazol-6-yl)-1-[2-(4-morpholinyl)ethyl]-3-(4-nitrophenyl)urea], 19.2%. For `Nc1nc2ccc(NC(=O)NCc3ccc(Cl)cc3)cc2s1` [Example 5, 1-(2-aminobenzo[d]thiazol-6-yl)-3-(4-chlorobenzyl)urea], the inhibition at 0.1 µM was 47%.

For `Nc1nc2cnc(N(CCN3CCOCC3)C(=O)Nc3cccnc3)nc2s1` [Example 44, 1-(2-aminothiazo[5,4-d]pyrimidin-5-yl)-1-[2-(4-morpholinyl)ethyl]-3-(pyridin-3-yl)urea], the inhibition at 0.1 µM is 55.9%. As for `Nc1nc2ccc(N(CCCN3CCOCC3)C(=O)Nc3ccc(Cl)cc3)cc2s1` [Example 26, 1-(2-aminobenzo[d]thiazol-6-yl)-1-[3-(4-morpholinyl)propyl]-3-(4-chlorophenyl)urea], the inhibition at 0.1 µM came out at 36.5%. The figure for `CC1CCN(CCN(C(=O)Nc2ccc(Cl)cc2)c2ccc3nc(N)sc3c2)CC1` [Example 22, 1-(2-aminobenzo[d]thiazol-6-yl)-1-[2-(4-methylpiperidin-1-yl)ethyl]-3-(4-chlorophenyl)urea] is 67.5%; for `CC(=O)c1ccc(NC(=O)N(CCN2CCOCC2)c2ccc3nc(N)sc3c2)cc1` [Example 9, 1-(2-aminobenzo[d]thiazol-6-yl)-1-[2-(4-morpholinyl)ethyl]-3-(4-acetylphenyl)urea] it is 28.2%. The figure for `Nc1nc2ccc(N(CCN3CCOCC3)C(=O)Nc3ccc(F)cc3)nc2s1` [Example 38, 1-(2-aminothiazo[5,4-b]pyridin-5-yl)-3-(4-fluorophenyl)-1-[2-(4-morpholinyl)ethyl]urea] is 57.2%; for `Nc1nc2cnc(N(CCN3CCOCC3)C(=O)Nc3ccc(OC(F)(F)F)cc3)cc2s1` [Example 41, 1-(2-aminothiazo[4,5-c]pyridin-6-yl)-1-[2-(4-morpholinyl)ethyl]-3-(4-trifluoromethoxyphenyl)urea] it is 34.7%; for `Nc1nc2ccc(N(CCN3CCOCC3)C(=O)Nc3ccc(OC(F)(F)F)cc3)cc2s1` [Example 17, 1-(2-aminobenzo[d]thiazol-6-yl)-1-[2-(4-morpholinyl)ethyl]-3-(4-trifluoromethoxyphenyl)urea] it is 70.3%.

Consider `CCOC(=O)Nc1nc2ccc(N(CCN3CCOCC3)C(=O)Nc3ccc(Cl)cc3)cc2s1` [Example 28, 1-[2-(2-ethoxyformamido)benzo[d]thiazol-6-yl]-1-[2-(4-morpholinyl)ethyl]-3-(4-chlorophenyl)urea], for which the inhibition at 0.1 µM is 90.5%.

Turning to `CC(C)c1ccc(NC(=O)N(CCN2CCOCC2)c2ccc3nc(N)sc3c2)cc1` [Example 20, 1-(2-aminobenzo[d]thiazol-6-yl)-1-[2-(4-morpholinyl)ethyl]-3-(4-isopropylphenyl)urea], the inhibition at 0.1 µM worked out at 75.2%. `O=C(CCc1ccccc1)Nc1nc2cnc(N(CCN3CCOCC3)C(=O)Nc3cccnc3)nc2s1` [Example 46]: the inhibition at 0.1 µM stood at 67.9%. With `O=C(Nc1nc2cnc(N(CCN3CCOCC3)C(=O)Nc3ccc(OC(F)(F)F)cc3)cc2s1)C1CC1` [Example 42, 1-(2-cyclopropylformamidothiazo[4,5-c]pyridin-6-yl)-1-[2-(4-morpholinyl)ethyl]-3-(4-trifluoromethoxyphenyl)urea], the inhibition at 0.1 µM stood at 52.1%.

With `Nc1nc2ccc(NC(=O)Nc3ccccc3)cc2s1` [Example 3, 1-(2-aminobenzo[d]thiazol-6-yl)-3-phenylurea], the inhibition at 0.1 µM was determined as 32.9%.

In the case of `Nc1nc2ccc(NC(=O)NC3CCCCC3)cc2s1` [Example 6, 1-(2-aminobenzo[d]thiazol-6-yl)-3-cyclohexylurea], the inhibition at 0.1 µM was 2.15%.
